Measured values as given in paper PMC5635798, “Alteration to Dopaminergic Synapses Following Exposure to Perfluorooctane Sulfonate (PFOS), in Vitro and in Vivo” (Medical Sciences, 2016).

Biological target: T1, vesicular monoamine transporter 2 (VMAT2) (Homo sapiens, UniProt Q05940)
T1 construct: gene SLC18A2; human VMAT2 stably expressed in HEK293 cells (HEK-hVMAT2), pcDNA3.1
Assay: inhibition of vesicular 3H-dopamine uptake in HEK-hVMAT2 cell fractions
Type: biochemical

T1 sequence (Q05940 whole entry): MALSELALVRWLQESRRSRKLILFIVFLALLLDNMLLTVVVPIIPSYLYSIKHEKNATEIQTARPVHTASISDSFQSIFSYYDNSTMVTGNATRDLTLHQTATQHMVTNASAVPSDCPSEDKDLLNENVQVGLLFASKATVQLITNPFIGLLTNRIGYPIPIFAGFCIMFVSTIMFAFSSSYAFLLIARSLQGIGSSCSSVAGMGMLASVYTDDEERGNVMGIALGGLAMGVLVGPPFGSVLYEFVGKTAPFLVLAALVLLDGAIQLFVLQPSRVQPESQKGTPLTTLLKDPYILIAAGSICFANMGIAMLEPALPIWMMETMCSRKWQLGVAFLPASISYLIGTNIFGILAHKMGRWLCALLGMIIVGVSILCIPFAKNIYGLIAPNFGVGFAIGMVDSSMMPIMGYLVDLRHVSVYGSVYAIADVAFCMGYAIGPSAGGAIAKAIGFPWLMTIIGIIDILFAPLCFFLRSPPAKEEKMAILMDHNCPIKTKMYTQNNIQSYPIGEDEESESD

## O=S(=O)(O)C(F)(F)C(F)(F)C(F)(F)C(F)(F)C(F)(F)C(F)(F)C(F)(F)C(F)(F)F [PFOS]
  IC50: 4.56 µM
